# Measured values taken from PubChem BioAssay AID1963841 (Molecular Pharmacology Branch, DTP, NCI, 2024).
# pIC50: −log10 of the molar value.
# Tested on: 439559-082-T-J2-PDC spheroid viability
# Assay: Anticancer human tumor 439559-082-T-J2-PDC patient-derived colon adenocarcinoma cell line growth inhibition [POLQ]
# Settings: spheroids with HUVEC and MSC; for pIC50: curve of first compound; for viability, T/C: stronger effect = lower value
# How it was run: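 Complex spheroid viability model combining PDC tumour cells with endothelial (HUVEC) and MSC stromal cells. Novobiocin, ART-558 or RP6685 were tested singly and in combination with standard and investigational anticancer drugs. Each was titrated in half-log steps from near clinical Cmax, or from 10 microM where Cmax was unknown.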
# [1] = second compound 0.0316 µM, first compound 0.0316 µM
# [2] = second compound 0.0316 µM, first compound 0.1 µM
# [3] = second compound 0.0316 µM, first compound 0.316 µM
# [4] = second compound 0.0316 µM, first compound 1 µM
# [5] = second compound 0.0316 µM, first compound 3.16 µM
# [6] = second compound 0.0316 µM, first compound 10 µM
# [7] = second compound 0.1 µM, first compound 0.0316 µM
# [8] = second compound 0.1 µM, first compound 0.1 µM
# [9] = second compound 0.1 µM, first compound 0.316 µM
# [10] = second compound 0.1 µM, first compound 1 µM
# [11] = second compound 0.1 µM, first compound 3.16 µM
# [12] = second compound 0.1 µM, first compound 10 µM
# [13] = second compound 0.316 µM, first compound 0.0316 µM
# [14] = second compound 0.316 µM, first compound 0.1 µM
# [15] = second compound 0.316 µM, first compound 0.316 µM
# [16] = second compound 0.316 µM, first compound 1 µM
# [17] = second compound 0.316 µM, first compound 3.16 µM
# [18] = second compound 0.316 µM, first compound 10 µM
# [19] = second compound 1 µM, first compound 0.0316 µM
# [20] = second compound 1 µM, first compound 0.1 µM
# [21] = second compound 1 µM, first compound 0.316 µM
# [22] = second compound 1 µM, first compound 1 µM
# [23] = second compound 1 µM, first compound 3.16 µM
# [24] = second compound 1 µM, first compound 10 µM
# [25] = second compound 3.16 µM, first compound 0.0316 µM
# [26] = second compound 3.16 µM, first compound 0.1 µM
# [27] = second compound 3.16 µM, first compound 0.316 µM
# [28] = second compound 3.16 µM, first compound 1 µM
# [29] = second compound 3.16 µM, first compound 3.16 µM
# [30] = second compound 3.16 µM, first compound 10 µM
# [31] = second compound 10 µM, first compound 0.0316 µM
# [32] = second compound 10 µM, first compound 0.1 µM
# [33] = second compound 10 µM, first compound 0.316 µM
# [34] = second compound 10 µM, first compound 1 µM
# [35] = second compound 10 µM, first compound 3.16 µM
# [36] = second compound 10 µM, first compound 10 µM
# 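Further: spheroids exposed to compounds for seven days before readout.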
# 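Wherever viability, T/C is given: 100% = DMSO vehicle control viability.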
compound,measurement,setting,value
C=CC(=O)N1CCN(c2nc(=O)n(-c3c(C)ccnc3C(C)C)c3nc(-c4c(O)cccc4F)c(F)cc23)C(C)C1 (centres undefined) + COC1C(OC(N)=O)C(O)C(Oc2ccc3c(O)c(NC(=O)c4ccc(O)c(CC=C(C)C)c4)c(=O)oc3c2C)OC1(C)C,pIC50,second compound 0.0316 µM,< 5.00
same,pIC50,second compound 0.1 µM,< 5.00
same,pIC50,second compound 0.316 µM,< 5.00
same,pIC50,second compound 1 µM,< 5.00
same,pIC50,second compound 3.16 µM,< 5.00
same,pIC50,second compound 10 µM,< 5.00
same,"viability, T/C",[1],95.8%
same,"viability, T/C",[2],93.5%
same,"viability, T/C",[3],104%
same,"viability, T/C",[4],101%
same,"viability, T/C",[5],104%
same,"viability, T/C",[6],91.4%
same,"viability, T/C",[7],96.7%
same,"viability, T/C",[8],105%
same,"viability, T/C",[9],98%
same,"viability, T/C",[10],101%
same,"viability, T/C",[11],106%
same,"viability, T/C",[12],96.9%
same,"viability, T/C",[13],103%
same,"viability, T/C",[14],96.3%
same,"viability, T/C",[15],99.7%
same,"viability, T/C",[16],101%
same,"viability, T/C",[17],107%
same,"viability, T/C",[18],98.6%
same,"viability, T/C",[19],106%
same,"viability, T/C",[20],105%
same,"viability, T/C",[21],97.6%
same,"viability, T/C",[22],101%
same,"viability, T/C",[23],109%
same,"viability, T/C",[24],98.8%
same,"viability, T/C",[25],98.1%
same,"viability, T/C",[26],101%
same,"viability, T/C",[27],101%
same,"viability, T/C",[28],104%
same,"viability, T/C",[29],98.5%
same,"viability, T/C",[30],102%
same,"viability, T/C",[31],103%
same,"viability, T/C",[32],92.8%
same,"viability, T/C",[33],98.8%
same,"viability, T/C",[34],109%
same,"viability, T/C",[35],106%
same,"viability, T/C",[36],98.8%
CC(C)n1c(=O)n(C)c2cnc3cc(F)c(-c4ccc(OCCCN5CCCCC5)nc4)cc3c21 + COC1C(OC(N)=O)C(O)C(Oc2ccc3c(O)c(NC(=O)c4ccc(O)c(CC=C(C)C)c4)c(=O)oc3c2C)OC1(C)C,pIC50,second compound 0.0316 µM,< 5.00
same,pIC50,second compound 0.1 µM,< 5.00
same,pIC50,second compound 0.316 µM,< 5.00
same,pIC50,second compound 1 µM,< 5.00
same,pIC50,second compound 3.16 µM,< 5.00
same,pIC50,second compound 10 µM,< 5.00
same,"viability, T/C",[1],97.8%
same,"viability, T/C",[2],102%
same,"viability, T/C",[3],109%
same,"viability, T/C",[4],116%
same,"viability, T/C",[5],113%
same,"viability, T/C",[6],102%
same,"viability, T/C",[7],111%
same,"viability, T/C",[8],109%
same,"viability, T/C",[9],110%
same,"viability, T/C",[10],119%
same,"viability, T/C",[11],102%
same,"viability, T/C",[12],99.4%
same,"viability, T/C",[13],119%
same,"viability, T/C",[14],109%
same,"viability, T/C",[15],109%
same,"viability, T/C",[16],112%
same,"viability, T/C",[17],107%
same,"viability, T/C",[18],91.2%
same,"viability, T/C",[19],110%
same,"viability, T/C",[20],111%
same,"viability, T/C",[21],111%
same,"viability, T/C",[22],109%
same,"viability, T/C",[23],110%
same,"viability, T/C",[24],95%
same,"viability, T/C",[25],105%
same,"viability, T/C",[26],107%
same,"viability, T/C",[27],106%
same,"viability, T/C",[28],112%
same,"viability, T/C",[29],111%
same,"viability, T/C",[30],97.6%
same,"viability, T/C",[31],103%
same,"viability, T/C",[32],96.9%
same,"viability, T/C",[33],106%
same,"viability, T/C",[34],106%
same,"viability, T/C",[35],113%
same,"viability, T/C",[36],102%
